In paper PMC8516952, “Two triterpenoids from Rubus fraxinifolius leaves and their tyrosinase and elastase inhibitory activities” (Scientific Reports, 2021):
Values after ≈ are worked out from the molar mass of the structure shown.

Experiments:
mushroom tyrosinase = experiment: Tyrosinase inhibition assay (DOPA-chrome formation method); assay type: biochemical, Agaricus bisporus
Experimental: Tyrosinase inhibition was determined using the DOPA-chrome formation method as described previously with slight modifications. […] They were preincubated for 10 min at room temperature. Reactions were initiated by adding 4 μL aliquots of 10 mM L-DOPA to each well and incubating at 37 °C for 20 min. Tyrosinase activity was then determined by measuring absorbance at 475 nm. […] Experiments were performed in triplicate.

[1] = biological target: porcine pancreatic elastase (Sus scrofa, UniProt P00772)
elastase = conditions: cited from earlier work

Chain of porcine pancreatic elastase (P00772 27-266): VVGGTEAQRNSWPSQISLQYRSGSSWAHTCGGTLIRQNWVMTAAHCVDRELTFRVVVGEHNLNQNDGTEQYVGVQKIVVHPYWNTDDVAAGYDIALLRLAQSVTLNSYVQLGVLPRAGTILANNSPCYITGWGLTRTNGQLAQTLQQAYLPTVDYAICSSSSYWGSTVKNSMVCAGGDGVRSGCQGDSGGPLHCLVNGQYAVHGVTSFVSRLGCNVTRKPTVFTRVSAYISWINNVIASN

Row | Activity as tyrosinase inhibitors (in words) (mushroom tyrosinase) | IC50 tyrosinase inhibition (mushroom tyrosinase) [µg/mL] | IC50 [1] [µM] | SMILES | IC50 elastase inhibition (previous studies) (elastase) [µg/mL]
1 | moderate activities | 207.79 (≈ 381 µM) | 224 | C[C@@H]1CC[C@]2(C(=O)O)CCC3(C)C(=CCC4C3(C)CCC3C(C)(C(=O)O)[C@H]5OCCO[C@@H]5C[C@@]34C)C2[C@]1(C)O (stereo partly shown) [Compound 1, 2,3-O-ethylene glycol, 19-hydroxyurs-12-en-23,28-dioic acid] | –
2 | moderate activities | 221.51 (≈ 419 µM) | 186 | C[C@@H]1CC[C@]2(C(=O)O)CCC3(C)C(=CCC4C3(C)CCC3C(C)(C)[C@H]5OCCCO[C@@H]5C[C@@]34C)C2[C@]1(C)O (stereo partly shown) [Compound 2, 2,3-O-Propanediol, 19-hydroxyurs-12-en-28-oic acid] | –
3 | – | – | – | C[C@H]1[C@H](C)CC[C@]2(C(=O)O)CC[C@]3(C)C(=CC[C@@H]4[C@@]5(C)CC[C@H](O)C(C)(C)[C@@H]5CC[C@]43C)[C@H]12 [ursolic acid] | 31.0 (≈ 67.9 µM)
